Test results as given in the supplement of paper PMC11451515.

Tested on: NOMO1
Assay: cell viability relative to DMSO control; higher = less cytotoxic
Details: 48 h
Method in brief: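 Library compounds in DMSO were pin-dosed into 1536-well plates (5 μl) holding NOMO1 or SEM (500 cells/well) or P12-Ichikawa (1000 cells/well) leukemia cells, across an 11-point threefold series of 47 μM to 0.79 nM. Each cell line had been adapted for at least four passages in each medium. CellTiter-Glo One luminescence was read after 48 h at 37°C. Viability is the per-plate percentage relative to DMSO wells, with cell-free wells as background.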

[1] = HPLM + 10% dialyzed FBS, 0.000781 µM
[2] = HPLM + 10% dialyzed FBS, 0.00234 µM
[3] = HPLM + 10% dialyzed FBS, 0.00702 µM
[4] = HPLM + 10% dialyzed FBS, 0.0211 µM
[5] = HPLM + 10% dialyzed FBS, 0.0632 µM
[6] = HPLM + 10% dialyzed FBS, 0.19 µM
[7] = HPLM + 10% dialyzed FBS, 0.569 µM
[8] = HPLM + 10% dialyzed FBS, 1.71 µM
[9] = HPLM + 10% dialyzed FBS, 5.12 µM
[10] = HPLM + 10% dialyzed FBS, 15.4 µM
[11] = HPLM + 10% dialyzed FBS, 46.1 µM
[12] = RPMI 5 mM glucose + 10% FBS, 0.000781 µM
[13] = RPMI 5 mM glucose + 10% FBS, 0.00234 µM
[14] = RPMI 5 mM glucose + 10% FBS, 0.00702 µM
[15] = RPMI 5 mM glucose + 10% FBS, 0.0211 µM
[16] = RPMI 5 mM glucose + 10% FBS, 0.0632 µM
[17] = RPMI 5 mM glucose + 10% FBS, 0.19 µM
[18] = RPMI 5 mM glucose + 10% FBS, 0.569 µM
[19] = RPMI 5 mM glucose + 10% FBS, 1.71 µM
[20] = RPMI 5 mM glucose + 10% FBS, 5.12 µM
[21] = RPMI 5 mM glucose + 10% FBS, 15.4 µM
[22] = RPMI 5 mM glucose + 10% FBS, 46.1 µM
[23] = RPMI 5 mM glucose + 10% dialyzed FBS, 0.000781 µM
[24] = RPMI 5 mM glucose + 10% dialyzed FBS, 0.00234 µM
[25] = RPMI 5 mM glucose + 10% dialyzed FBS, 0.00702 µM
[26] = RPMI 5 mM glucose + 10% dialyzed FBS, 0.0211 µM
[27] = RPMI 5 mM glucose + 10% dialyzed FBS, 0.0632 µM
[28] = RPMI 5 mM glucose + 10% dialyzed FBS, 0.19 µM
[29] = RPMI 5 mM glucose + 10% dialyzed FBS, 0.569 µM
[30] = RPMI 5 mM glucose + 10% dialyzed FBS, 1.71 µM
[31] = RPMI 5 mM glucose + 10% dialyzed FBS, 5.12 µM
[32] = RPMI 5 mM glucose + 10% dialyzed FBS, 15.4 µM
[33] = RPMI 5 mM glucose + 10% dialyzed FBS, 46.1 µM

SMILES	cell viability [1]	cell viability [2]	cell viability [3]	cell viability [4]	cell viability [5]	cell viability [6]	cell viability [7]	cell viability [8]	cell viability [9]	cell viability [10]	cell viability [11]	cell viability [12]	cell viability [13]	cell viability [14]	cell viability [15]	cell viability [16]	cell viability [17]	cell viability [18]	cell viability [19]	cell viability [20]	cell viability [21]	cell viability [22]	cell viability [23]	cell viability [24]	cell viability [25]	cell viability [26]	cell viability [27]	cell viability [28]	cell viability [29]	cell viability [30]	cell viability [31]	cell viability [32]	cell viability [33]
FC1=CC=C(C=C1)N2/C=C\C=C(C(=O)NC3=CC=C(OC4=C5C=C[NH]C5=NC=C4)C(=C3)F)/C2=O	97%	117%	106%	108%	104%	144%	114%	124%	119%	122%	112%	104%	111%	109%	110%	112%	125%	116%	138%	115%	101%	120%	96.1%	92.7%	94.5%	107%	108%	108%	102%	124%	106%	115%	108%
CNC(=O)c1ccc2cc(C3(O)CCn4cncc43)ccc2c1 (stereo not drawn)	124%	131%	121%	127%	143%	118%	126%	137%	113%	98.1%	112%	105%	117%	103%	120%	110%	96.8%	102%	96.8%	108%	99.7%	114%	–	–	–	–	–	–	–	–	–	–	–
CC[S+](=O)([O-])c1cccc(-c2cc(C(=O)NC3CCN(C)CC3)c(C)c3[nH]c4ncc(C)cc4c23)c1	118%	128%	120%	136%	126%	89.9%	115%	68.2%	52.6%	51%	6.96%	114%	115%	114%	135%	128%	111%	77.3%	83.9%	92.6%	47%	8.64%	124%	122%	130%	128%	138%	87.7%	80.7%	86.8%	80.3%	48.3%	8.02%
Cc1nn(Cc2ccccc2Cl)c(C)c1CN(C)CC(O)COc1ccc(Cl)cc1 (stereo not drawn)	106%	101%	98%	97.7%	99.7%	103%	108%	106%	85.8%	83.1%	22.5%	100%	92.9%	89.1%	90.4%	90.5%	94.1%	99.5%	93.7%	90.8%	85.6%	34.5%	94.7%	101%	110%	101%	106%	99.4%	100%	94.4%	83.9%	75.3%	27.2%
COc1ccccc1OCC(O)COC(N)=O (stereo not drawn)	79.5%	104%	108%	119%	127%	116%	122%	119%	130%	125%	6.3%	102%	98.1%	102%	113%	109%	98%	119%	103%	114%	119%	113%	94.7%	109%	111%	105%	116%	119%	102%	107%	122%	108%	100%
CN[C@@H]1[C@@H](O)[C@@H](O[C@@H]2[C@@H](O)[C@H](O[C@H]3O[C@H](CN)[C@@H](O)[C@H](O)[C@H]3O)[C@@H](N)C[C@H]2NC(=O)[C@@H](O)CN)OC[C@]1(C)O	120%	132%	115%	135%	148%	130%	140%	110%	113%	103%	120%	–	–	–	–	–	–	–	–	–	–	–	130%	115%	110%	127%	112%	132%	116%	107%	99.9%	117%	98.6%
COCC1(CO)C(=O)C2CCN1CC2 (stereo not drawn)	116%	106%	103%	123%	104%	121%	92.4%	130%	105%	60.1%	31.7%	91.9%	95.4%	102%	106%	107%	104%	103%	100%	111%	79%	18.1%	93.8%	110%	94.6%	98.8%	115%	108%	90.9%	94.6%	104%	94.8%	50.2%
c1ccc2[nH]c(-c3cscn3)nc2c1	122%	113%	136%	121%	133%	135%	122%	133%	107%	102%	90.8%	–	–	–	–	–	–	–	–	–	–	–	–	–	–	–	–	–	–	–	–	–	–
N#CCNC(=O)c1ccc(-c2ccnc(Nc3ccc(N4CCOCC4)cc3)n2)cc1	109%	115%	116%	134%	128%	117%	115%	105%	124%	87.3%	8.36%	88.7%	116%	101%	113%	107%	106%	106%	89.5%	102%	86%	11.3%	48.6%	105%	129%	113%	120%	110%	99.7%	90.8%	114%	85.6%	10.8%
CC[C@H](/C=C/[C@@H](C)[C@H]1CC[C@H]2[C@@H]3CC=C4C[C@@H](O)CC[C@]4(C)[C@H]3CC[C@]12C)C(C)C	104%	112%	110%	98.9%	104%	102%	97.3%	96.7%	80.6%	73.7%	58.2%	89.3%	94.3%	101%	105%	92.9%	90.7%	88.8%	92.8%	81.1%	81.3%	78.7%	98.2%	89.4%	91.1%	84.5%	96.1%	89.5%	86%	95.1%	94.5%	68.3%	69.6%
O=C(C=CC#Cc1cccc(N[S+](=O)([O-])c2ccccc2)c1)NO	116%	121%	116%	131%	137%	142%	126%	107%	36.1%	7.6%	3.17%	124%	123%	109%	138%	119%	129%	135%	117%	41.9%	7.03%	3.62%	–	–	–	–	–	–	–	–	–	–	–
CC(C)N[C@@H]1CCn2c(=O)[nH]c3cccc(c32)[C@H]1O	–	–	–	–	–	–	–	–	–	–	–	119%	110%	121%	119%	111%	108%	117%	104%	105%	103%	55.6%	–	–	–	–	–	–	–	–	–	–	–
CC(C)c1noc(N2CCC(COc3ccc(-c4ccc([S+](C)(=O)[O-])cc4)nc3)CC2)n1	122%	104%	117%	103%	122%	108%	120%	109%	94.3%	109%	116%	114%	113%	122%	118%	121%	114%	122%	104%	105%	110%	100%	118%	122%	118%	122%	117%	128%	119%	109%	116%	113%	107%
CCOC(=O)[C@@H](N)Cc1ccc(-c2cc(O[C@H](c3ccc(Cl)cc3-n3ccc(C)n3)C(F)(F)F)nc(N)n2)cc1.O=C(O)CNC(=O)c1ccccc1	114%	111%	121%	125%	114%	118%	114%	116%	94.2%	102%	5.68%	108%	96.2%	109%	101%	94.3%	90.3%	97.6%	103%	95.4%	90.1%	7.52%	102%	117%	102%	100%	97%	98.6%	122%	105%	98.3%	88.6%	4.2%
CC1=C(C)C(=O)C(C(CCCCCC(=O)O)c2ccccc2)=C(C)C1=O (stereo not drawn)	75.8%	78.1%	83.4%	93.9%	93.6%	109%	53.4%	97.9%	27.8%	27.1%	13.5%	68%	82.7%	70.7%	74.7%	74.9%	79.3%	76.1%	80.4%	19.6%	22.3%	12.5%	75.6%	78.9%	75%	87.7%	83.7%	84.2%	86.4%	78%	25.1%	27.4%	15%
CN[C@@H](C)[C@H]1[C@H](O)C[C@@]2(C)[C@@H]3CC[C@H]4C(C)(C)[C@@H](NC)CC[C@@]45C[C@@]35CC[C@]12C	81.4%	102%	81.7%	108%	89.8%	93.7%	105%	95.2%	82.6%	105%	70.9%	85.4%	94.5%	91.6%	94.3%	102%	102%	95%	94.8%	93.9%	95.7%	92.5%	86.4%	87.8%	101%	99.6%	104%	95.6%	93.1%	91.7%	86.1%	99.6%	72.1%
CC(C)(C)NC(=O)Nc1cccc(Nc2ncc(F)c(NC(C)(C)CO)n2)c1	99.9%	115%	133%	140%	112%	137%	122%	130%	127%	111%	108%	123%	115%	127%	112%	135%	112%	120%	133%	111%	69.8%	98.4%	–	–	–	–	–	–	–	–	–	–	–
